Source: US20110039799A1, “A1 ADENOSINE RECEPTOR AGONIST POLYMORPHS” (Gilead Palo Alto, Inc., priority 2009, published 2011)
“Also recorded” adds a separate entry of the source.

Key:
[1] = Solid-state stability by DSC thermogram (storage, wet granulation, direct compression, grinding); format: physicochemical; conditions: for stability when stored, in comparison to compound formed from Example 1: storage, ambient temperature and 75% relative humidity (Form III 5 months, Form IV 3 months)
Description: Differential scanning calorimetry (DSC) was performed using a TA Instruments differential scanning calorimeter either Q1000 or Q2000. The sample was placed into an aluminum DSC pan, and the weight accurately recorded. The pan was covered with a lid (sometimes the lid was perforated with a (laser) pinhole to allow for pressure release), and then either crimped or hermetically sealed. The sample cell was equilibrated at either 25° C. (Q2000) or 40° C. (Q1000) and heated under a nitrogen purge at a rate of 10° C./min, up to a final temperature of either 180 (Q1000)° C. or 250° C. (Q2000). Indium metal was used as the calibration standard.

[2] = Water vapor sorption (dynamic vapor adsorption), hygroscopicity; format: physicochemical; conditions: adsorption/desorption 5% to 95% relative humidity
Description: Water vapor sorption data were collected on a VTI SGA-100 Vapor Sorption Analyzer. Adsorption and desorption data were collected over a range of 5% to 95% relative humidity (RH) at 10% RH intervals under a nitrogen purge. The samples were not dried prior to analyses. Equilibrium criteria used for the analyses were less than 0.0100% weight change in 5 minutes, with a maximum equilibration time of 3 hours if the weight criterion was not met. Data were not corrected for the initial moisture content of the samples. NaCl and PVP were used as calibration standards.

[3] = in vivo, US 2007/018505 Example 32; cited from earlier work
[4] = cited from earlier work

SMILES | solid-state stability by DSC thermogram when subjected to direct compression and grinding [1] | solid-state stability by DSC thermogram when subjected to wet granulation [1] | hygroscopicity by dynamic vapor adsorption [2] | stability when stored, in comparison to compound formed from Example 1 [1] | other results
O[C@@H]1[C@H](O)[C@@H](CSc2ccccc2F)O[C@H]1n1cnc2c(N[C@@H]3CCC[C@H]3O)ncnc21 [Example 1, 2-{6-[((1R,2R)-2-hydroxycyclopentyl)amino]purin-9-yl}(4S,5S,2R,3R)-5-[(2-fluorophenylthio)methyl]oxolane-3,4-diol] | DSC thermogram change and instability | DSC thermogram change and instability | high hygroscopicity |  | DSC thermogram upon storage ([1]; storage at 40° C. and 75% relative humidity for 2 months): DSC thermogram change
O[C@@H]1[C@H](O)[C@@H](CSc2ccccc2F)O[C@H]1n1cnc2c(N[C@@H]3CCC[C@H]3O)ncnc21 [Form III, 2-{6-[((1R,2R)-2-hydroxycyclopentyl)amino]purin-9-yl}(4S,5S,2R,3R)-5-[(2-fluorophenylthio)methyl]oxolane-3,4-diol] | not affected | not affected | non-hygroscopic; also recorded: not hygroscopic | enhanced stability | stability to moisture, mechanical stress, pharmaceutical processing, and temperature changes, relative to other crystalline forms ([1]; general statement): superior
O[C@@H]1[C@H](O)[C@@H](CSc2ccccc2F)O[C@H]1n1cnc2c(N[C@@H]3CCC[C@H]3O)ncnc21 [Form IV, 2-{6-[((1R,2R)-2-hydroxycyclopentyl)amino]purin-9-yl}(4S,5S,2R,3R)-5-[(2-fluorophenylthio)methyl]oxolane-3,4-diol] |  |  | non-hygroscopic; also recorded: not hygroscopic | enhanced stability | 
O[C@@H]1[C@H](O)[C@@H](CSc2ccccc2F)O[C@H]1n1cnc2c(N[C@@H]3CCC[C@H]3O)ncnc21 [GS-9667, 2-{6-[((1R,2R)-2-hydroxycyclopentyl)amino]purin-9-yl}(4S,5S,2R,3R)-5-[(2-fluorophenylthio)methyl]oxolane-3,4-diol] |  |  |  |  | circulating free fatty acides (FFA) [3]: lowering; insulin sensitivity [3]: improving; serum triglyceride (TG) levels [3]: lowering
Nc1ncnc2c1ncn2[C@@H]1O[C@H](CO)[C@@H](O)[C@H]1O [adenosine, Adenosine] |  |  |  |  | half-life [4]: less than 10 seconds
